In PubChem BioAssay AID256 (DTP/NCI, 2004):
Where “and” joins values, the source holds several entries; their conditions need not be identical. Equal entries are not always repeated. Inconclusive results and toxic doses are left out.

System: CD2F1 mice, L1210 leukemia ip, survival T/C
Assay: NCI In Vivo Anticancer Drug Screen. Data for tumor model L1210 Leukemia (intraperitoneal) in CD2F1 (CDF1) mice
Conditions: higher = longer survival
Procedure, shortened: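 In this screen, transplantable tumors were grown in mice given either the compound or its vehicle. Results were expressed as the treated measurement relative to the control measurement.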

[1] = endpoint: mean survival time, dose: 100.0 mg/kg/injection, schedule: Q04DX003 (ip), vehicle: saline
[2] = endpoint: mean survival time, dose: 100.0 mg/kg/injection, schedule: Q04DX002 (ip), vehicle: saline with Tween-80
[3] = endpoint: mean survival time, dose: 200.0 mg/kg/injection, schedule: Q04DX002 (ip), vehicle: saline with Tween-80
[4] = endpoint: mean survival time, dose: 25.0 mg/kg/injection, schedule: Q01DX001 (ip), vehicle: Klucel (hydroxypropylcellulose) (HPC)
[5] = endpoint: mean survival time, dose: 12.5 mg/kg/injection, schedule: Q01DX009 (ip), vehicle: saline with Tween-80
[6] = endpoint: mean survival time, dose: 25.0 mg/kg/injection, schedule: Q01DX009 (ip), vehicle: saline with Tween-80
[7] = endpoint: mean survival time, dose: 50.0 mg/kg/injection, schedule: Q01DX009 (ip), vehicle: saline with Tween-80
[8] = endpoint: mean survival time, dose: 100.0 mg/kg/injection, schedule: Q01DX009 (ip), vehicle: saline with Tween-80
[9] = endpoint: mean survival time, dose: 200.0 mg/kg/injection, schedule: Q01DX009 (ip), vehicle: saline with Tween-80

Compound: CCCCCCCCCCCCCCCC(=O)N(CCCN(C)C)CCCN(CCCN(C)C)C(=O)CCCCCCCCCCCCCCC
- T/C (endpoint: mean survival time, dose: 1.56 mg/kg/injection, schedule: Q01DX009 (ip), vehicle: water): 101 % of control
- T/C (endpoint: mean survival time, dose: 3.13 mg/kg/injection, schedule: Q01DX009 (ip), vehicle: water): 98 % of control
- T/C (endpoint: mean survival time, dose: 6.25 mg/kg/injection, schedule: Q01DX009 (ip), vehicle: water): 95 % of control
- T/C (endpoint: mean survival time, dose: 12.5 mg/kg/injection, schedule: Q01DX009 (ip), vehicle: water): 94 % of control and 95 % of control
- T/C (endpoint: mean survival time, dose: 25.0 mg/kg/injection, schedule: Q01DX009 (ip), vehicle: water): 95 % of control

Compound: C=CCS(=O)(=O)O
- T/C (endpoint: mean survival time, dose: 100.0 mg/kg/injection, schedule: Q01DX009 (ip), vehicle: saline sonified): 96 % of control
- T/C [1]: 100 % of control
- T/C (endpoint: mean survival time, dose: 200.0 mg/kg/injection, schedule: Q01DX009 (ip), vehicle: saline sonified): 96 % of control
- T/C (endpoint: mean survival time, dose: 200.0 mg/kg/injection, schedule: Q04DX003 (ip), vehicle: saline): 107 % of control
- T/C (endpoint: mean survival time, dose: 400.0 mg/kg/injection, schedule: Q01DX009 (ip), vehicle: saline sonified): 96 % of control
- T/C (endpoint: mean survival time, dose: 400.0 mg/kg/injection, schedule: Q04DX003 (ip), vehicle: saline): 107 % of control

Compound: CCCOC(=O)COc1ccc(F)cc1
- T/C [2]: 97 % of control
- T/C [3]: 101 % of control
- T/C (endpoint: mean survival time, dose: 400.0 mg/kg/injection, schedule: Q04DX002 (ip), vehicle: saline with Tween-80): 97 % of control

Compound: CCC(C(C)N1CC(=O)NC(=O)C1)N1CC(=O)NC(=O)C1 (centres undefined)
- T/C (endpoint: mean survival time, dose: 0.06 mg/kg/injection, schedule: Q01DX009 (ip), vehicle: Klucel (hydroxypropylcellulose) (HPC)): 109 % of control
- T/C (endpoint: mean survival time, dose: 0.13 mg/kg/injection, schedule: Q01DX009 (ip), vehicle: Klucel (hydroxypropylcellulose) (HPC)): 114 % of control
- T/C (endpoint: mean survival time, dose: 0.5 mg/kg/injection, schedule: Q04DX003 (ip), vehicle: Klucel (hydroxypropylcellulose) (HPC)): 119 % of control
- T/C (endpoint: mean survival time, dose: 1.0 mg/kg/injection, schedule: Q01DX009 (ip), vehicle: Klucel (hydroxypropylcellulose) (HPC)): 120 % of control
- T/C (endpoint: mean survival time, dose: 1.0 mg/kg/injection, schedule: Q04DX003 (ip), vehicle: Klucel (hydroxypropylcellulose) (HPC)): 154 % of control
- T/C (endpoint: mean survival time, dose: 2.0 mg/kg/injection, schedule: Q01DX009 (ip), vehicle: Klucel (hydroxypropylcellulose) (HPC)): 89 % of control
- T/C (endpoint: mean survival time, dose: 2.0 mg/kg/injection, schedule: Q04DX003 (ip), vehicle: Klucel (hydroxypropylcellulose) (HPC)): 178 % of control
- T/C (endpoint: mean survival time, dose: 4.0 mg/kg/injection, schedule: Q04DX003 (ip), vehicle: Klucel (hydroxypropylcellulose) (HPC)): 167 % of control
- T/C (endpoint: mean survival time, dose: 8.0 mg/kg/injection, schedule: Q04DX003 (ip), vehicle: Klucel (hydroxypropylcellulose) (HPC)): 100 % of control

Compound: Nc1c(-c2ncc[nH]2)ncn1CC(O)C(O)C(O)CO (centres undefined)
- T/C (endpoint: mean survival time, dose: 12.5 mg/kg/injection, schedule: Q01DX005 (ip), vehicle: saline with Tween-80): 98 % of control
- T/C (endpoint: mean survival time, dose: 25.0 mg/kg/injection, schedule: Q01DX005 (ip), vehicle: saline with Tween-80): 101 % of control
- T/C (endpoint: mean survival time, dose: 50.0 mg/kg/injection, schedule: Q01DX005 (ip), vehicle: saline with Tween-80): 103 % of control
- T/C (endpoint: mean survival time, dose: 100.0 mg/kg/injection, schedule: Q01DX005 (ip), vehicle: saline with Tween-80): 92 % of control
- T/C (endpoint: mean survival time, dose: 200.0 mg/kg/injection, schedule: Q01DX005 (ip), vehicle: saline with Tween-80): 98 % of control

Compound: CC(=O)OC1CCC2(C)C(CCC3C2CC(OC(C)=O)C2(C)C3CCC2C2(C)SCCS2)C1 (centres undefined)
- T/C (endpoint: mean survival time, dose: 50.0 mg/kg/injection, schedule: Q04DX002 (ip), vehicle: Klucel (hydroxypropylcellulose) (HPC)): 95 % of control
- T/C (endpoint: mean survival time, dose: 100.0 mg/kg/injection, schedule: Q04DX002 (ip), vehicle: Klucel (hydroxypropylcellulose) (HPC)): 98 % of control
- T/C (endpoint: mean survival time, dose: 200.0 mg/kg/injection, schedule: Q04DX002 (ip), vehicle: Klucel (hydroxypropylcellulose) (HPC)): 88 % of control

Compound: CCOC(=O)c1oc(C)nc1C
- T/C (endpoint: mean survival time, dose: 12.5 mg/kg/injection, schedule: Q01DX001 (ip), vehicle: Klucel (hydroxypropylcellulose) (HPC)): 90 % of control
- T/C [4]: 104 % of control
- T/C (endpoint: mean survival time, dose: 50.0 mg/kg/injection, schedule: Q01DX001 (ip), vehicle: Klucel (hydroxypropylcellulose) (HPC)): 98 % of control
- T/C (endpoint: mean survival time, dose: 100.0 mg/kg/injection, schedule: Q01DX001 (ip), vehicle: Klucel (hydroxypropylcellulose) (HPC)): 101 % of control
- T/C (endpoint: mean survival time, dose: 200.0 mg/kg/injection, schedule: Q01DX001 (ip), vehicle: Klucel (hydroxypropylcellulose) (HPC)): 98 % of control

Compound: CCc1ccc(C2=C(O)C(=O)C(c3ccc(CC)cc3)=C(O)C2=O)cc1
- T/C (endpoint: mean survival time, dose: 1.56 mg/kg/injection, schedule: Q01DX001 (ip), vehicle: Klucel (hydroxypropylcellulose) (HPC)): 97 % of control
- T/C (endpoint: mean survival time, dose: 3.12 mg/kg/injection, schedule: Q01DX009 (ip), vehicle: saline with Tween-80): 97 % of control
- T/C (endpoint: mean survival time, dose: 3.13 mg/kg/injection, schedule: Q01DX001 (ip), vehicle: Klucel (hydroxypropylcellulose) (HPC)): 96 % of control
- T/C (endpoint: mean survival time, dose: 6.25 mg/kg/injection, schedule: Q01DX001 (ip), vehicle: Klucel (hydroxypropylcellulose) (HPC)): 96 % of control
- T/C (endpoint: mean survival time, dose: 6.25 mg/kg/injection, schedule: Q01DX009 (ip), vehicle: saline with Tween-80): 89 % of control and 109 % of control
- T/C [5]: 104 % of control
- T/C [4]: 120 % of control
- T/C [6]: 106 % of control and 111 % of control
- T/C [7]: 119 % of control

Compound: COc1cc[c-]cc1.[C-]#[O+].[C-]#[O+].[Fe+6].[c-]1[c-][c-][cH-][c-]1
- T/C (endpoint: mean survival time, dose: 50.0 mg/kg/injection, schedule: Q04DX002 (ip), vehicle: saline with Tween-80): 102 % of control
- T/C [2]: 102 % of control
- T/C [3]: 97 % of control

Compound: O=C(CBr)c1ccc(I)cc1
- T/C (endpoint: mean survival time, dose: 3.13 mg/kg/injection, schedule: Q04DX003 (ip), vehicle: saline): 94 % of control
- T/C (endpoint: mean survival time, dose: 6.25 mg/kg/injection, schedule: Q04DX003 (ip), vehicle: saline): 98 % of control
- T/C (endpoint: mean survival time, dose: 12.5 mg/kg/injection, schedule: Q04DX003 (ip), vehicle: saline): 94 % of control
- T/C (endpoint: mean survival time, dose: 25.0 mg/kg/injection, schedule: Q04DX003 (ip), vehicle: saline): 98 % of control
- T/C (endpoint: mean survival time, dose: 50.0 mg/kg/injection, schedule: Q04DX003 (ip), vehicle: saline): 98 % of control
- T/C [1]: 106 % of control

Compound: CCCCCC#CC(=O)OC
- T/C [7]: 95 % of control
- T/C [8]: 104 % of control
- T/C (endpoint: mean survival time, dose: 100.0 mg/kg/injection, schedule: Q04DX003 (ip), vehicle: saline with Tween-80): 94 % of control
- T/C [9]: 103 % of control
- T/C (endpoint: mean survival time, dose: 200.0 mg/kg/injection, schedule: Q04DX003 (ip), vehicle: saline with Tween-80): 96 % of control

Compound: CC1=CC(=O)C(C(=O)CC(O)(C(F)(F)F)C(F)(F)F)C(=O)O1 (centres undefined)
- T/C (endpoint: mean survival time, dose: 100.0 mg/kg/injection, schedule: Q01DX001 (ip), vehicle: saline with Tween-80): 98 % of control
- T/C (endpoint: mean survival time, dose: 200.0 mg/kg/injection, schedule: Q01DX001 (ip), vehicle: saline with Tween-80): 104 % of control
- T/C (endpoint: mean survival time, dose: 400.0 mg/kg/injection, schedule: Q01DX001 (ip), vehicle: saline with Tween-80): 95 % of control

Compound: OCCC1CC1=C1CC1 (centres undefined)
- T/C (endpoint: mean survival time, dose: 100.0 mg/kg/injection, schedule: Q04DX003 (ip), vehicle: Klucel (hydroxypropylcellulose) (HPC)): 101 % of control
- T/C (endpoint: mean survival time, dose: 200.0 mg/kg/injection, schedule: Q04DX003 (ip), vehicle: Klucel (hydroxypropylcellulose) (HPC)): 101 % of control

Compound: COc1ccc(C(=O)c2no[n+]([O-])c2C(=O)c2ccc(OC)cc2)cc1
- T/C [5]: 100 % of control
- T/C [6]: 97 % of control
- T/C [7]: 101 % of control
- T/C [8]: 97 % of control and 98 % of control
- T/C [9]: 98 % of control and 102 % of control
- T/C (endpoint: mean survival time, dose: 400.0 mg/kg/injection, schedule: Q01DX009 (ip), vehicle: saline with Tween-80): 97 % of control and 110 % of control

Compound: NCCNCCNCc1ccccc1
- T/C (endpoint: mean survival time, dose: 100.0 mg/kg/injection, schedule: Q01DX009 (ip), vehicle: saline): 94 % of control
- T/C (endpoint: mean survival time, dose: 200.0 mg/kg/injection, schedule: Q01DX009 (ip), vehicle: saline): 107 % of control

Compound: CC(C)(C)[Si](C)(C)Oc1ncc(F)c(O[Si](C)(C)C(C)(C)C)n1
- T/C (endpoint: mean survival time, dose: 5.0 mg/kg/injection, schedule: Q01DX009 (ip), vehicle: distilled water + Tween-80): 123 % of control
- T/C (endpoint: mean survival time, dose: 10.0 mg/kg/injection, schedule: Q01DX009 (ip), vehicle: distilled water + Tween-80): 113 % of control
- T/C (endpoint: mean survival time, dose: 20.0 mg/kg/injection, schedule: Q01DX009 (ip), vehicle: distilled water + Tween-80): 123 % of control

Compound: S=C1CCCCN1
- T/C (endpoint: median survival time, dose: 25.0 mg/kg/injection, schedule: Q01DX009 (ip), vehicle: distilled water + alcohol): 96 % of control
- T/C (endpoint: median survival time, dose: 50.0 mg/kg/injection, schedule: Q01DX009 (ip), vehicle: distilled water + alcohol): 94 % of control
- T/C (endpoint: median survival time, dose: 100.0 mg/kg/injection, schedule: Q01DX009 (ip), vehicle: distilled water + alcohol): 106 % of control
- T/C (endpoint: median survival time, dose: 200.0 mg/kg/injection, schedule: Q01DX009 (ip), vehicle: distilled water + alcohol): 112 % of control
